Reference: US9868748B2, “Thiazolopyrrolidine inhibitors of ROR- γ” (Vitae Pharmaceuticals, Inc., priority 2013, dated 2018)
Like-named read-outs stand apart in the source and are kept apart here.

Assays:
[1] = biological target: recombinant RORγ Ligand Binding Domain (LBD) protein (Homo sapiens (Human), UniProt P51449); assay: Radio-Ligand RORγ Binding Assay (Assay 1); details: competition with 25-hydroxy [26,27-3H]-cholesterol, SPA, read-out: RORγ Binding Ki Range*
Procedure: Radio-Ligand RORγ Binding Assay (Assay 1)
Compounds of the present invention were tested for ability to bind to RORγ in a cell-free competition assay with commercially available radio-ligand (RL), 25-hydroxy [26,27-^3H]— cholesterol (PerkinElmer, Cat. # NET674250UC), for a ligand binding site on a recombinant RORγ Ligand Binding Domain (LBD) protein expressed as a 6×His-Glutathione-S-Transferase (GST) fusion (“6×His” disclosed as SEQ ID NO: 2). The assay was performed in 96-well SPA plates (PerkinElmer, Cat. #1450-401) in 50 mM HEPES buffer, pH 7.4, containing 150 mM NaCl, 5 mM MgCl2, 10% (v/v) glycerol, 2 mM CHAPS, 0.5 mM β-octylglucopyranoside and 5 mM DTT. Tested compounds were dissolved in DMSO, and semi-log (3.162×) serial dilutions of the compounds were prepared in the same solvent. Two μL of the DMSO solutions were mixed with 28 μL of 8.6 nM 25-hydroxy [26,27-^3H]— cholesterol and 50 μL of 24 nM RORγ LBD. The plate was shaken at 700 rpm for 20 min and incubated for 10 min at rt, after which 40 μL of poly-Lys YSi SPA beads (PerkinElmer, Cat. # RPNQ0010) were added to achieve 50 μg of the beads per well. The plate was incubated on an orbital shaker for 20 min and then for 10 min without agitation at rt. SPA signal for tritium beta radiation was registered on PerkinElmer Microbeta plate reader. Percent inhibition values were calculated based on the high signal obtained with DMSO control and the low signal observed with 10 μM standard RORγ inverse agonist T0901317 (SigmaAldrich, Cat. # T2320). The percent inhibition vs. concentration data were fit into a four-parameter model, and […] values were calculated from the fit as the concentrations corresponding to the inflection points on the dose-response curves. Inhibitory constants (Ki) were calculated using the following equation, where [RL] is the concentration in the assay and KD is a dissociation constant of 25-hydroxy [26,27-^3H]-cholesterol: […]

[2] = biological target: full-length RORγt in Jurkat cells (Homo sapiens (Human), UniProt P51449); assay: RORγt 5xRORE Assay in Jurkat Cells (Assay 2); assay type: cell-based; details: Nanoluc luciferase reporter, 16-18 hrs
Procedure: [formula] RORγt 5xRORE Assay in Jurkat Cells (Assay 2)
Compounds of the present invention were tested for RORγ inverse agonist activity in a cell-based, transcriptional activity assay. Secreted Nanoluc® luciferase was used as a reporter for transcriptional activity of the full-length RORγt in Jurkat cells (ATCC, Cat. # TIB-152). A reporter plasmid was constructed by inserting 5 repeats of the ROR Response Element (RORE) […] (SEQ ID NO:1) into a commercially available promoterless plasmid pNL1.3[secNluc] (Promega, Cat. # N1021) using KpnI and HindIII restriction sites. The expression plasmid for RORγt was purchased (Geneocopoeia, Cat. # EX-T6988-M02). Jurkat cells (30 million cells) were transfected with 11 μg of EX-T6988-MO2 and 26 μg of the reporter plasmid in OptiMEM® media using Lipofectamine® LTX and Plus™ reagents (Life Technologies, Cat. #15338-100). After 5-6 h of incubation at 37° C./5% CO2, the cells were collected, resuspended in phenol-red free RPMI media containing 10% (v/v) delipidated FBS (Hyclone, Cat. # SH30855.03) and dispensed into 96-well clear bottom tissue culture plates (CoStar, Cat. #3603), at 80,000 cells per well. Tested compounds were added to the cells in the same media (final concentration of DMSO was 0.1% (v/v)), and the plates were incubated at 37° C./5% CO2 for 16-18 hrs. Luciferase activity in the conditioned supernatants was determined with NanoGlo® assay reagents (Promega, Cat. # N1130).

[3] = Table 9, read-out: RORγt5X IC50 Range*
[4] = Table 8, read-out: RORγt5X IC50 Range*

recombinant RORγ Ligand Binding Domain (LBD) protein, sequence (P51449 269-508): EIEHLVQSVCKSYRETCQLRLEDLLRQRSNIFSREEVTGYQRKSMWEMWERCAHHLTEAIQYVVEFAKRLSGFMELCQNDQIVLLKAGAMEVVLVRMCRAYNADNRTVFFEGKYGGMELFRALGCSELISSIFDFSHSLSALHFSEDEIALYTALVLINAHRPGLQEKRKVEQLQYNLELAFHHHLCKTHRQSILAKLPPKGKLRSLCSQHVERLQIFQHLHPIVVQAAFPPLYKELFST
full-length RORγt in Jurkat cells, sequence (P51449 other isoform, or with tags, fused parts or gaps): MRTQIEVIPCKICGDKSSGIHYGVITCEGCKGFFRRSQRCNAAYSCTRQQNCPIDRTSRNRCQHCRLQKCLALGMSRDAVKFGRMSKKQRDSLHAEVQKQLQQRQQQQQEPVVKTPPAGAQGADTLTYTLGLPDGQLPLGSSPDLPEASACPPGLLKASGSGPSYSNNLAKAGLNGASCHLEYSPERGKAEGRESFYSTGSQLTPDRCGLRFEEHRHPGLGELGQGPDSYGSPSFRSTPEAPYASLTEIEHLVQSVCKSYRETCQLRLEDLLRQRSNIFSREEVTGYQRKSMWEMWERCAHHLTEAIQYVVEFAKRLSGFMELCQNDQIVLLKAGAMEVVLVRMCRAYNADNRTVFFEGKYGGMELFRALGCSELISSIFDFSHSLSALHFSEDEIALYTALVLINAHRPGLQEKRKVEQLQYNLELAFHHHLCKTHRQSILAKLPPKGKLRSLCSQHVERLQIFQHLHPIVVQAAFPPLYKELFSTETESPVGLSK

| Compound | Ki ([1]; Table 9) | IC50 [2, 3] | Ki ([1]; Table 8) | IC50 [2, 4] |
| --- | --- | --- | --- | --- |
| CCS(=O)(=O)c1cnc(CC(=O)Nc2nc3c(s2)CN(Cc2ccc(C(F)(F)F)cc2)[C@H]3C(C)C)nc1 | < 100 nM | 100 to 1000 nM |  |  |
| CCS(=O)(=O)c1ccc(CC(=O)Nc2nc3c(s2)CN([C@@H](C)c2ccc(C(F)(F)F)cc2)[C@H]3C(C)C)cc1 [I-A35] |  |  | < 100 nM | < 100 nM |
| CCS(=O)(=O)c1ccc(CC(=O)Nc2nc3c(s2)CN(C[C@@H]2CCCOC2)[C@H]3C(C)C)cc1 (single isomer, unassigned) | < 100 nM | > 1000 nM |  |  |
| CCS(=O)(=O)c1ccc(CC(=O)Nc2nc3c(s2)CN(Cc2ccc(C#N)cc2)[C@@H]3C(C)(C)C)cc1 | < 100 nM | 100 to 1000 nM |  |  |
| CCS(=O)(=O)c1ccc(CC(=O)Nc2nc3c(s2)CN(Cc2ccc(C#N)cc2)[C@H]3C(C)C)cc1 [I-A15] |  |  | < 100 nM | < 100 nM |
| CCS(=O)(=O)c1ccc(CC(=O)Nc2nc3c(s2)CN(Cc2cc(OC)cc(OC)c2)[C@@H]3C(C)C)cc1 | < 100 nM | > 1000 nM |  |  |
| CCS(=O)(=O)c1ccc(CC(=O)Nc2nc3c(s2)CN(Cc2ccc(OC(F)F)cc2)[C@H]3C(C)C)cc1 [I-A1, (S)—N-(5-(4-(difluoromethoxy)benzyl)-4-isopropyl-5,6-dihydro-4H-pyrrolo[3,4-d]thiazol-2-yl)-2-(4-(ethylsulfonyl)phenyl)acetamide] |  |  | < 100 nM | < 100 nM |
| CCc1ccc(CN2Cc3sc(NC(=O)Cc4ccc(S(=O)(=O)CC)cc4)nc3[C@@H]2C(C)C)cc1 [I-A63] |  |  | < 100 nM | < 100 nM |
| CCS(=O)(=O)c1ccc(CC(=O)Nc2nc3c(s2)CN(Cc2ccc(Br)cc2)[C@H]3C(C)C)cc1 | < 100 nM | < 100 nM |  |  |
| CC(C)[C@H]1c2nc(NC(=O)Cc3ccc(S(C)(=O)=O)cc3)sc2CN1[C@@H](C)c1ccc(C(F)(F)F)nc1 (single isomer, unassigned) | < 100 nM | < 100 nM |  |  |
| CCS(=O)(=O)c1ccc(CC(=O)Nc2nc3c(s2)CN(Cc2ccc(OC(F)(F)F)c(Cl)c2)[C@H]3C(C)C)nc1 | < 100 nM | < 100 nM |  |  |
| CC[C@H]1c2nc(NC(=O)Cc3ccc(S(=O)(=O)CC)cc3)sc2CN1[C@@H](C)c1ncc(Cl)cc1F | < 100 nM | 100 to 1000 nM |  |  |
| CC(C)[C@H]1c2nc(NC(=O)Cc3ccc(S(C)(=O)=O)cc3F)sc2CN1Cc1ccc(C#N)cc1 [I-M1, (S)—N-(5-(4-cyanobenzyl)-4-isopropyl-5,6-dihydro-4H-pyrrolo[3,4-d]thiazol-2-yl)-2-(2-fluoro-4-(methylsulfonyl)phenyl)acetamide] |  |  | < 100 nM | < 100 nM |
| CCS(=O)(=O)c1ccc(CC(=O)Nc2nc3c(s2)CN(C[C@H]2CC[C@@](C)(C#N)CC2)[C@H]3C(C)C)nc1 (single isomer, unassigned) | < 100 nM | 100 to 1000 nM |  |  |
| CCS(=O)(=O)c1ccc(CC(=O)Nc2nc3c(s2)CN(Cc2ncc(C#N)cc2F)[C@H]3C(C)C)cc1 [I-A46] |  |  | < 100 nM | < 100 nM |
| CCS(=O)(=O)c1ccc(CC(=O)Nc2nc3c(s2)CN(CC2CCN(CC(F)(F)F)CC2)[C@H]3C(C)C)cc1 [I-A20, (S)-2-(4-(ethylsulfonyl)phenyl)-N-(4-isopropyl-5-((1-(2,2,2-trifluoroethyl)piperidin-4-yl)methyl)-5,6-dihydro-4H-pyrrolo[3,4-d]thiazol-2-yl)acetamide] |  |  | < 100 nM | < 100 nM |
| CCS(=O)(=O)c1ccc(CC(=O)Nc2nc3c(s2)CN(C[C@H]2CC[C@H](C(F)(F)F)NC2)[C@H]3C(C)C)nc1 (single isomer, unassigned) [drawing 211] | 100 to 1000 nM | 100 to 1000 nM |  |  |

| Compound | Ki ([1]; Table 9) | IC50 [2, 3] | Ki ([1]; Table 8) | IC50 [2, 4] |
| --- | --- | --- | --- | --- |
| CCS(=O)(=O)c1ccc(CC(=O)Nc2nc3c(s2)CN(Cc2ncc(C(F)(F)F)cn2)[C@H]3C(C)C)cc1 [I-A6] |  |  | < 100 nM | < 100 nM |
| CCOC(=O)c1cnc(N2Cc3sc(NC(=O)Cc4ccc(S(=O)(=O)CC)cc4)nc3[C@]2(C)C(C)C)nc1C(F)(F)F | < 100 nM | > 1000 nM |  |  |
| CCS(=O)(=O)c1ccc(CC(=O)Nc2nc3c(s2)CN(C[C@H]2CC[C@H](C#N)CC2)[C@H]3C(C)C)cc1 | < 100 nM | < 100 nM |  |  |
| CCS(=O)(=O)c1ccc(CC(=O)Nc2nc3c(s2)CN(Cc2ccc(Cl)cc2)[C@H]3C(C)C)nc1 [I-C1, (S)—N-(5-(4-chlorobenzyl)-4-isopropyl-5,6-dihydro-4H-pyrrolo[3,4-d]thiazol-2-yl)-2-(5-(ethylsulfonyl)pyridin-2-yl)acetamide] |  |  | < 100 nM | < 100 nM |
| CC(C)[C@H]1c2nc(NC(=O)Cc3ccc(C(C)(C)C#N)cc3)sc2CN1Cc1ccc(Cl)cc1 | < 100 nM | 100 to 1000 nM |  |  |
| CCS(=O)(=O)c1ccc(CC(=O)Nc2nc3c(s2)CN(Cc2ccc(C#N)cc2)[C@@H]3C(C)C)cc1 | 100 to 1000 nM | 100 to 1000 nM |  |  |
| CCS(=O)(=O)c1ccc(CC(=O)Nc2nc3c(s2)CN(Cc2ccncc2)[C@H]3C(C)C)cc1 | < 100 nM | > 1000 nM |  |  |
| CCS(=O)(=O)c1ccc(CNC(=O)c2nc3c(s2)CN(Cc2ccc(Cl)cc2)[C@H]3C(C)C)nc1 [I-L1, (S)-5-(4-chlorobenzyl)-N-((5-(ethylsulfonyl)pyridin-2-yl)methyl)-4-isopropyl-5,6-dihydro-4H-pyrrolo[3,4-d]thiazole-2-carboxamide] |  |  | < 100 nM | < 100 nM |
| CCS(=O)(=O)c1ccc(CC(=O)Nc2nc3c(s2)CN(Cc2ccc(OC(F)(F)F)cc2)[C@@H]3C(C)C)cc1 | < 100 nM | 100 to 1000 nM |  |  |
| CCS(=O)(=O)c1ccc(CC(=O)Nc2nc3c(s2)CN(Cc2ccc4c(c2)OC(F)(F)O4)[C@H]3C(C)C)nc1 [I-L3] |  |  |  | < 100 nM |
| CCS(=O)(=O)c1ccc(CC(=O)Nc2nc3c(s2)CN(C[C@@H]2CC[C@@H](C(F)(F)F)N(C)C2)[C@H]3C(C)C)cc1 [I-A30] |  |  |  | < 100 nM |
| Cc1cc(C(F)(F)F)nc(N2Cc3sc(-c4ccc(C(F)(F)F)nc4)nc3[C@H]2C(C)C)n1 | > 1000 nM |  |  |  |
| CC(C)[C@H]1c2nc(NC(=O)Cc3ccc(S(C)(=O)=O)cc3F)sc2CN1Cc1cnc(C(F)(F)F)nc1 | 100 to 1000 nM |  |  |  |
| CC(C)[C@H]1c2nc(NC(=O)Cc3ccc(S(C)(=O)=O)cc3)sc2CN1c1ncc(C#N)c(Cl)n1 | 100 to 1000 nM |  |  |  |
| CC(C)[C@H]1c2nc(NC(=O)Cc3ccc(S(C)(=O)=O)cc3)sc2CN1Cc1ccc(=O)n(C(F)F)n1 | > 1000 nM |  |  |  |
| CCS(=O)(=O)c1ccc(CC(=O)Nc2nc3c(s2)CN(c2ncc(CO)c(C(F)(F)F)n2)[C@H]3C(C)C)cc1 | 100 to 1000 nM |  |  |  |
| CCS(=O)(=O)c1ccc(CC(=O)Nc2nc3c(s2)CN([C@@H](C)Cc2ccc(F)cc2)[C@@H]3C(C)C)cc1 (single isomer, unassigned) | 100 to 1000 nM |  |  |  |
